Measurements from US7462629B2, “Immunosuppressant compounds and compositions” (IRM LLC, priority 2003, dated 2008).
pEC50: −log10 of the molar value.

Columns and labels:
[1] = system: EDG-3, EDG-5, EDG-6 and EDG-8; assay: EDG-3, -5, -6 and -8 GTP [γ-35S] binding assays (selectivity versus EDG-1); assay type: biochemical, human
Experimental: (§1) A. In Vitro: GPCR Activation Assay Measuring GTP [γ-^35S] Binding to Membranes Prepared from CHO Cells Expressing Human EDG Receptors
For each membrane preparation, titration experiments are first run with S1P control to determine the optimal amount of membranes to be added per assay well. […] For example, 3-[6-(4-cyclohexyl-3-trifluoromethyl-benzyloxy)-3,4-dihydro-1H-isoquinolin-2-yl]-propionic acid (compound 9) has an EC50 of 0.2 nM in the above assay and is at least 1000 fold selective for EDG-1 compared to one or more of the other receptors including EDG-3, EDG-5, EDG-6 and EDG-8.

[2] = biological target: T1, human EDG-1 (Homo sapiens, UniProt P21453); assay: EDG-1 (S1P1) GTP [γ-35S] binding assay, membranes from CHO cells; assay type: biochemical; conditions: CHO membranes expressing human EDG-1
T1 construct: expressed in transfected cells
T1 sequence (P21453 whole entry): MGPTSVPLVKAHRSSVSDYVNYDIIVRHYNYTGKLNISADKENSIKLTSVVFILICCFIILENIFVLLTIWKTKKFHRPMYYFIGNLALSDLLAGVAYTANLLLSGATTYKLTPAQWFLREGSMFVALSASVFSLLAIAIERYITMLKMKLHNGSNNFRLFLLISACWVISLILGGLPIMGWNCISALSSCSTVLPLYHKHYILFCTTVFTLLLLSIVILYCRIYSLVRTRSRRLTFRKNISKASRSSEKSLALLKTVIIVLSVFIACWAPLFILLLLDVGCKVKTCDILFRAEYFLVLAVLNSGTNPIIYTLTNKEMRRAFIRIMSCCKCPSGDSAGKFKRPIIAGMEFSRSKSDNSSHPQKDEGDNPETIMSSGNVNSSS
Experimental: as §1
EDG-1 (S1P1) GTP [γ-^35S] binding assay: Homogenized membranes are prepared from CHO cell clones stably expressing a human EDG-1 N-terminal c-myc tag. Cells are grown in suspension in two 850 cm^2 roller bottles for three or fours days before harvesting. The cells are centrifuged down, washed once with cold PBS, and resuspended in ≦20 ml of Buffer A (20 mM HEPES, pH 7.4, 10 mM EDTA, EDTA-free complete protease inhibitor cocktail [1 tablet/25 ml]). The cell suspension is homogenized on ice, using a Polytron homogenizer at 30000 rpm at three intervals of 15 seconds each. The homogenate is first centrifuged at 2000 rpm on a tabletop low speed centrifuge for 10 minutes. The supernatant, after passing through a cell strainer, is then re-centrifuged at 50,000×g for 25 minutes at 4° C. The pellet is resuspended into buffer B (15% glycerol, 20 mM HEPES, pH 7.4, 0.1 mM EDTA, EDTA-free complete protease inhibitor cocktail [1 tablet/10 ml]). Protein concentration of the prep is determined using the BCA Protein Assay kit (Pierce) using BSA as standard. The membranes are aliquoted and kept frozen at −80° C.
Solutions of test compounds ranging from 10 mM to 0.01 nM are prepared in DMSO. S1P is diluted in 4% BSA solution as positive controls. […]

[3] = system: blood lymphocytes; assay: Measurement of circulating lymphocytes (blood lymphocyte depletion); assay type: in vivo, Mice (C57bl/6 male); conditions: Mus musculus, mice, oral gavage, blood collected 6 and 24 hours after administration, read-out: ED50 (effective dose for 50% of blood lymphocyte depletion)
Experimental: C. In Vivo: Screening Assays for Measurement of Blood Lymphocyte Depletion and Assessment of Heart Effect
Measurement of circulating lymphocytes: Compounds are dissolved in DMSO and diluted to obtain a final concentration of 4% DMSO (v/v, final concentration) and then further diluted in a constant volume of Tween80 25%/H2O, v/v. Tween80 25%/H2O (200 μl), 4% DMSO, and FTY720 (10 μg) are included as negative and positive controls, respectively. Mice (C57bl/6 male, 6-10 week-old) are administered 250-300 μL of compound solution orally by gavages under short isoflurane anesthesia.
Blood is collected from the retro-orbital sinus 6 and 24 hours after drug administration under short isoflurane anesthesia. Whole blood samples are subjected to hematology analysis. Peripheral lymphocyte counts are determined using an automated analyzer. Subpopulations of peripheral blood lymphocytes are stained by fluorochrome-conjugated specific antibodies and analyzed using a fluorescent activating cell sorter (Facscalibur). Two mice are used to assess the lymphocyte depletion activity of each compound screened. The result is an ED50, which is defined as the effective dose required displaying 50% of blood lymphocyte depletion.

`O=C(O)CCN1CCc2cc(OCc3ccc(C4CCCCC4)c(C(F)(F)F)c3)ccc2C1` [Compound 9, 3-[6-(4-cyclohexyl-3-trifluoromethyl-benzyloxy)-3,4-dihydro-1H-isoquinolin-2-yl]-propionic acid] was tested, and the “selectivity for EDG-1 compared to one or more of EDG-3, EDG-5, EDG-6 and EDG-8” value [1] was “at least 1000 fold”, the pEC50 [2] was 9.70 and the ED50 [3] was 0.2 mg/kg.
